Experiment [1] relates to human fetal astrocytes derived from cerebral cortex. Description: Transcriptome analysis of astrocyte cultures treated with MMF, DRF, IDMF. It is filed as cell-based. Conditions: 2.5 μM, 24 hours. As to the method: Experiments were performed using human fetal astrocytes derived from cerebral cortex (cat. no. 882A-05f; Cell Applications, Sant Diego, Calif.). Cells were grown to subconfluence in human astrocyte growth medium (cat. no. 820-500, Cell Applications). […] Test materials were added to subconfluent cultures at a concentration of 2.5 μM and cells were incubated for 24 hours.
RNA was extracted following the incubation period using the RNAeasy Mini Plus kit (Qiagen, Hilden, Germany) and robotic Qiacube Connect station (Qiagen). Samples were shipped on dry ice to the Thermo Fisher Microarray Research Services Laboratory (Santa Clara, Calif.) for transcriptome analysis. RNA quality analysis was performed upon sample receipt using the NanoDrop Lite (Thermo Fisher Scientific, Waltham, Mass.). All samples had 260/280 nm absorbance ratios higher than 1.90, consistent with high-purity RNA.
In follow-up to the study of Example, 1 above, genes associated with multiple sclerosis were identified based upon seven established database sources: (1) the NHGRI-EBI genome-wide association (GWA) study catalogue, (2) the Disease Ontology (DO) database, (3) the DisGeNET (curated) database, (4) the DisGeNET (BeFree), (5) MalaCards, (6) the Medical Subject Heading (MESH) database and the KEGG Database. The impact on gene expression of IDMF, MMF and DRF on the key overlapping MS-associated genes was assessed.
The specific data for four of the key NFR2 target genes associated with antioxidant and anti-inflammatory effects is presented in FIGS. 7(A) thru 7(D).
Both TNFAIP3 and NFKBIA encode inhibitory proteins that suppress the NF-KB pathway. Specifically, TNFAIP3 encodes a deubiquitinating enzyme previously linked to MS by genetic association studies: a TNFAIP3 protein abundance is increased in white matter and cortical lesion astrocytes from MS patient brains. Similarly, NFKBIA (IκBα) encodes an NF-KB inhibitor for which promoter polymorphisms have been associated with MS and abundance of this protein is prominent in macrophage nuclei of MS plaques undergoing active demyelination. ICAM1 encodes an endothelial adhesion molecule that promotes leucocyte extravasation and is associated with the initiation and progression of inflammation as well as the targeting of inflammation in the central nervous system (CNS). FIGS. 9(A), 9(B) and 9(C) show the specific data for these three genes.
Genetic variants of IFR has been associated with MS and some MS treatments such as glatiramer acetate block cytokine-stimulated IRF1 up-regulation. An assessment was undertaken to assess the relative impact of fumarate esters, namely MMF, DRF and IDMF on IFR motif enrichment.

In experiment [2] the test system is cytokine-treated neonatal human epidermal keratinocytes (HEK). Nature of the experiment: qPCR of pro-inflammatory and antioxidant genes in cytokine-treated keratinocytes. Conditions: 4 μg/ml, 24 h, IL-17A/IL-22/TNFα treated HEK. It is filed as cell-based. As to the method:
A separate assay study was conducted on cytokine-treated neonatal human epidermal keratinocytes (HEK) looking at the expression impact of IDMF and dimethyfumarate (DMF) on key pro-inflammatory and antioxidant genes. In preparation for the assay, HEK (p2; Cell Applications, San Diego) were cultured at optimal conditions [keratinocyte growth medium supplemented with KGM-Gold Bullet kit (Lonza, Switzerland)] to form a segmented monolayer. A cytokine mix of IL-17A/IL-22/TNFα (100 ng/ml; 100 ng/ml; 10 ng/ml; Antigenix, Huntington Station, N.Y.) was added and the cell cultures incubated for 24 h. […] Thereafter, each test material was added to the cultures at 4 μg/ml (final concentration) in triplicate and the cultures incubated for a further 24 hours.
After the 24-hour incubation with the test materials, the cells were observed through a Nikon Eclipse TS100 inverted microscope. No gross morphological changes were recorded. RNA was then extracted and purified with NucleoSpin RNA II kit from Machery-Nagel, Bethlehem, Pa., using QiaCube robotic station (Qiagen, Valencia, Calif.). Purified total RNA was assessed at 260 nm and 280 nm with NanoDrop Lite (Thermo Fisher Scientific, Waltham, Mass.), pure samples with A260A/280 and A260/A230 ratios of >1.7 were standardized and the expression of the genes of interest (Table 3) was measured by real-time quantitative PCR with BioRad iCycler iQ Detection System using custom-made PCR arrays (Qiagen, Valencia, Calif.; part #24caph12190), 5×All-In-One 1st Strand cDNA Synthesis Mix (Bioland Scientific, Paramount, Calif.) and 2×qPCR Master Mix (Bioland). Efficiency ΔΔCt method was used for quantification of results, after the normalization of gene expression to GAPDH/PPIA housekeeping gene. Genes were considered differentially expressed if the level of expression was reasonably high (less than 30 cycles to detect) and the modulation was >1.7. […] Even assuming IDMF fully metabolizes to MMF, there is still considerably more MMF from DMF as opposed to the same amount, based on weight, of IDMF.

SMILES strings stand for the structures. Counter-ions that a name gives are not always drawn.

Consider `COC(=O)/C=C/C(=O)O[C@H]1CO[C@H]2[C@@H]1OC[C@H]2OC(=O)/C=C/C(=O)OC` [IDMF, isosorbide di-(methyl fumarate)], for which, in experiment [1], the IRF1 expression result is on record as “marked downregulation”; the “effect on NRF2 target genes compared with MMF and DRF” value is reported as “much more pronounced effect”; the “effect on TNFAIP3, NFKBIA and ICAM1 expression” value was “marked downregulation”; the “expression of heme oxygenase-1 (HMOX1)” value is listed as “marked increase in expression”. In experiment [2], the CXCL3 fold change is −1.1 fold, the IL8 fold change stood at 1.4 fold, the NFE2L2 fold change was determined as 2.6 fold and the PTGS2 fold change was determined as 1.2 fold.

These data come from patent US20220142967A1, “Methods and Compositions for the Treatment of Multiple Sclerosis” (SYMBIONYX PHARMACEUTICALS INC, priority 2018, published 2022).
